Two molecules from US20250011798A1, “[…] PRODUCTION” (ModernaTX, Inc., priority 2021, published 2025) can be followed below.

The subject of test [1] is E. coli strains tolC::K3_amber (K3) and tolC::H342_amber (H342). Put plainly: Growth of transformed tolC::amber E. coli strains over 24 hours in media containing kanamycin or deoxycholate. The note with it: K3 and H342 strains with control luciferase plasmid, TBAF++ media containing deoxycholate (DOC 150), 37° C., FIGS. 3C-3D. In kind it is cell-based. As for the experimental part:
It was evaluated whether plasmid-borne expression of a mutant tRNA with an anticodon that is complementary to the tolC amber mutation would allow for expression of full-length TolC protein, and therefore allow the strain to grow in the presence of an otherwise lethal concentration of nalidixic acid (FIG. 2). In this case, a histidine tRNA, hisR, was modified with an anticodon loop that is complementary to the tolC amber STOP codon, UAG on RNA, which is encoded by TAG on DNA. Mutant E. coli strains were generated by introducing either a tolC::K3_amber (referred to as “K3”) or tolC::H342_amber (referred to as “H342”) amber mutation into the genome (FIG. 3A). Introduction of a STOP codon at an early codon of the open reading frame prevents the translation of non-functional TolC peptides with intact leader sequences, which would otherwise be translocated across the inner cell membrane into the periplasmic space or outer membrane. Each strain also contained codon-optimized tolC coding sequences. Both strains were transformed with a plasmid encoding either i) an amber suppressor tRNA that carries histidine (hisR), or ii) luciferase, as a control plasmid. Both plasmids carried a kanamycin-resistance marker to allow for plasmid maintenance during growth. […]

Test [2] has as its system tolC mutant strain (tolC::amber, Strain 4). Put plainly: Toxin sensitivity of the tolC::amber mutant strain. In kind it is cell-based, E. coli. The note with it: low concentrations; irrespective of the growth media. The text has this:
The TAG amber mutation was introduced into the tolC ORF a plasmid DNA production strain, Strain 4 (FIG. 2). TolC is the major outer membrane efflux pump component of E. coli. It is not an essential gene, but it is necessary for the efflux of many toxins, and a tolC knockout is lethal at elevated levels. The tolC mutant strain generated by the tolC::amber mutation was therefore hypersensitive to many toxins, such as low concentrations of nalidixic acid, irrespective of the growth media. While a tolC mutant has hypersensitivity to toxins, it can be cultured normally in rich media such as LB or Terrific Broth, which allows for the generation of competent cells that may be used for DNA synthesis in production.

As for deoxycholate [DOC 150], the “Effect on growth of strains not expressing the HisR tRNA” value in test [1] was “lethal”.

As for `CCn1cc(C(=O)O)c(=O)c2ccc(C)nc21` [nalidixic acid], the “Sensitivity of the tolC mutant strain to the toxin” value in test [2] was “hypersensitive”.
